From patent publication US7416722B2, “Concentrated, aqueous solutions of p-methoxybenzoic acid for use in cosmetic and dermatologic formulations” (Dr. Straetmans GmbH, priority 2005, dated 2008)
Converted amounts (≈) assume the structure as drawn.

Test: solubility of p-methoxybenzoic acid in water
Assay type: physicochemical
Text: p-Methoxybenzoic acid can be obtained under the trade name of DERMOSOFT® 688 from Dr. Straetmans GmbH in a cosmetical grade. The solubility of p-methoxybenzoic acid in water is approximately […]. For use in a cosmetic formulation the product is usually brought into solution with sodium hydroxide or potassium hydroxide in a small amount of water at warm temperatures and worked into an aqueous phase. To evolve the spectrum of effects of p-methoxybenzoic acid completely, afterwards the formula should be re-acidified to a pH-value of 5.5. […] This may show, that the initial homogenous solutions are merely meta-stable systems.

solubility: ~5000 µg/mL (≈ 32.9 mM)
SMILES: COc1ccc(C(=O)O)cc1 [p-methoxybenzoic acid]
